Measured values published in patent US20230365488A1, “TRUXILLIC ACID MONOESTER-DERIVATIVES AS SELECTIVE FABP5 INHIBITORS AND PHARMACEUTICAL COMPOSITIONS AND USES THEREOF” (The Research Foundation for The State University of New York, priority 2020, published 2023).
Blank lines part the entries; values can stand above or below the compound they belong to.

Columns and labels:
FABP3 = FABP3 (Homo sapiens (Human), UniProt P05413); assay: FABP3 fluorescent probe displacement binding assay; details: average ± S.E. of at least three independent experiments
Chain of FABP3 (P05413 whole entry): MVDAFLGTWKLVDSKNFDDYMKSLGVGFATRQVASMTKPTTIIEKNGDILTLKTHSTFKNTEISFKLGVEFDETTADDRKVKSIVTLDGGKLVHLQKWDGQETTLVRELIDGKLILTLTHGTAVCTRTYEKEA

FABP7 = FABP7 (Homo sapiens (Human), UniProt O15540); assay: FABP7 fluorescent probe displacement binding assay; details: average ± S.E. of at least three independent experiments
Chain of FABP7 (O15540 whole entry): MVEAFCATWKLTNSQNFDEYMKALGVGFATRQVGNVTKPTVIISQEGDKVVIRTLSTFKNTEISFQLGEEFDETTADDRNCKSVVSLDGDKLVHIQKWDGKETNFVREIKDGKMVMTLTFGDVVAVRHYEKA

PC3 cells = assay: MTT cytotoxicity and taxane combination (CI) analysis, PC3 (Example 6); format: cell-based, human; details: for CI value / Fa value / Relationship: PC3, 1y 7.5 μM or 1w 1.0 μM
22Rv1 cells = assay: MTT cytotoxicity and taxane combination (CI) analysis, 22Rv1 (Example 6); format: cell-based, human; details: for CI value / Fa value / Relationship: 1y 7.5 μM or 1w 1.0 μM
[1] = MTT cytotoxicity, RWPE-1 (Example 6); format: cell-based; details: human, RWPE-1 cells (normal prostate cell line), 72-hour incubation
[2] = MTT cytotoxicity, WI-38 (Example 6); format: cell-based; details: human, WI-38 cells (normal lung cell line), 72-hour incubation
[3] = tested on: PC3 cells implanted subcutaneously; assay: Subcutaneous PC3 tumor growth in nude mice; format: in vivo, male BALB/c nude mice; details: ip
FABP5 = FABP5 (Homo sapiens (Human), UniProt Q01469); assay: FABP5 fluorescent probe displacement binding assay; details: for Ki: average ± S.E. of at least three independent experiments; for FABP3 Ki/FABP5 Ki: selectivity ratio FABP3 over FABP5
Chain of FABP5 (Q01469 whole entry): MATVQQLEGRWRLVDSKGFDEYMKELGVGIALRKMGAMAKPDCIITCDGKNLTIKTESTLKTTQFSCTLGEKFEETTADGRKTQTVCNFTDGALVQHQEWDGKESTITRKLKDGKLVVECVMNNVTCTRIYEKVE

[4] = tested on: PC-3 (human metastatic prostate cancer) cells; assay: Cytotoxicity (MTT) assay, PC-3 (Example 5); format: cell-based; details: 72-hour incubation, 1% FBS, read-out: PC3 IC50
[5] = tested on: HepG2 (human liver cancer) cells; assay: Cytotoxicity (MTT) assay, HepG2 (Example 5); format: cell-based; details: 72-hour incubation, 1% FBS
[6] = tested on: WI-38 (human normal lung fibroblast) cells; assay: Cytotoxicity (MTT) assay, WI-38 (Example 5); format: cell-based; details: 72-hour incubation, 1% FBS
[7] = combination with cabazitaxel 0.03 nM
[8] = combination with cabazitaxel 0.3 nM
[9] = combination with cabazitaxel 3.0 nM
[10] = combination with docetaxel 0.03 nM
[11] = combination with docetaxel 0.3 nM
[12] = combination with docetaxel 3.0 nM
[13] = 22Rv1, combination with cabazitaxel 0.03 nM
[14] = 22Rv1, combination with cabazitaxel 0.3 nM
[15] = 22Rv1, combination with cabazitaxel 3.0 nM
[16] = 22Rv1, combination with docetaxel 0.03 nM
[17] = 22Rv1, combination with docetaxel 0.3 nM
[18] = 22Rv1, combination with docetaxel 3.0 nM

Ki (FABP3): 0.69 ± 0.17 µM
Ki (FABP7): 0.67 ± 0.04 µM
Structure (SMILES): COc1ccccc1[C@H]1[C@H](C(=O)O)[C@H](c2ccccc2OC)[C@H]1C(=O)Oc1cccc2ccccc12 (racemic) [Compound 1y]
IC50 (PC3 cells; Homo sapiens, PC-3, MTT, 72-hour incubation, single agent): 11.4 µM
CI value (PC3 cells; [7]): 0.0001
Fa value (PC3 cells; [7]): 0.998
Relationship (PC3 cells; [7]): synergistic
CI value (PC3 cells; [8]): 0.0001
Fa value (PC3 cells; [8]): 0.999
Relationship (PC3 cells; [8]): synergistic
CI value (PC3 cells; [9]): 0.0001
Fa value (PC3 cells; [9]): 0.999
Relationship (PC3 cells; [9]): synergistic
CI value (PC3 cells; [10]): 0.897
Fa value (PC3 cells; [10]): 0.786
Relationship (PC3 cells; [10]): synergistic
CI value (PC3 cells; [11]): 0.009
Fa value (PC3 cells; [11]): 0.950
Relationship (PC3 cells; [11]): synergistic
CI value (PC3 cells; [12]): 0.160
Fa value (PC3 cells; [12]): 0.992
Relationship (PC3 cells; [12]): synergistic
cytotoxicity of combination with docetaxel or cabazitaxel versus each drug administered independently (PC3 cells; PC3 cells): greater cytotoxicity
CI value (22Rv1 cells; [13]): 0.707
Fa value (22Rv1 cells; [13]): 0.777
Relationship (22Rv1 cells; [13]): synergistic
CI value (22Rv1 cells; [14]): 0.396
Fa value (22Rv1 cells; [14]): 0.899
Relationship (22Rv1 cells; [14]): synergistic
CI value (22Rv1 cells; [15]): 0.003
Fa value (22Rv1 cells; [15]): 0.998
Relationship (22Rv1 cells; [15]): synergistic
CI value (22Rv1 cells; [16]): 3.846
Fa value (22Rv1 cells; [16]): 0.795
CI value (22Rv1 cells; [17]): 0.003
Fa value (22Rv1 cells; [17]): 0.904
Relationship (22Rv1 cells; [17]): synergistic
CI value (22Rv1 cells; [18]): 0.005
Fa value (22Rv1 cells; [18]): 0.999
Relationship (22Rv1 cells; [18]): synergistic
cytotoxicity of combination with docetaxel or cabazitaxel versus each drug administered independently (22Rv1 cells; 22Rv1 cells): greater cytotoxicity
IC50 (22Rv1 cells; Homo sapiens, 22Rv1, MTT, 72-hour incubation, single agent): 10.1 µM
IC50 at 72 h [1]: 26 µM
IC50 at 72 h [2]: 29.4 µM
tumor growth ([3]; 20 mg/kg, once daily, from day 15, versus vehicle): significantly reduced tumor growth

Ki (FABP3): 2.28 ± 0.36 µM
Ki (FABP5): 1.03 ± 0.11 µM
FABP3 Ki/FABP5 Ki (FABP5): 2.2
Ki (FABP7): 0.99 ± 0.53 µM
Structure (SMILES): COc1ccccc1C1[C@@H](C(=O)O)[C@@H](c2ccccc2OC)[C@@H]1C(=O)Oc1cccc(-c2ccc(F)cc2)c1 (mixture of isomers) [Compound 1e, (±)-α-2,4-di (2-methoxyphenyl)-3-[3-(4-fluorophenyl)phenoxycarbonyl]cyclobutane-1-carboxylic acid]
IC50 [4]: 6.79 µM
IC50 [5]: 9.41 µM
IC50 [6]: 27.3 µM

Ki (FABP3): 0.21 ± 0.09 µM
Ki (FABP5): 1.59 ± 0.24 µM
FABP3 Ki/FABP5 Ki (FABP5): 0.13
Ki (FABP7): 1.36 ± 0.23 µM
Structure (SMILES): COc1ccccc1[C@H]1[C@H](C(=O)O)[C@H](c2ccccc2OC)[C@H]1C(=O)Oc1ccccc1-c1ccccc1 (racemic) [Compound 1o, (±)-α-3-(1,1′-biphenyl-2-yloxycarbonyl)-2,4-di (2-methoxyphenyl)cyclobutane-1-carboxylic acid]
IC50 [4]: 8.69 µM
IC50 [5]: 9.43 µM
IC50 [6]: > 100 µM

Ki (FABP3): 7.42 ± 1.38 µM
Ki (FABP5): 5.08 ± 0.62 µM
FABP3 Ki/FABP5 Ki (FABP5): 1.5
Ki (FABP7): 0.86 ± 0.04 µM
Structure (SMILES): O=C(O)[C@@H]1[C@@H](c2ccccc2)[C@H](C(=O)OCc2cccc3ccccc23)[C@H]1c1ccccc1 [Compound 3f, ε-2,4-diphenyl-3-(napthylen1-yl)methoxycarbonylcyclobutane-1-carboxylic acid]
IC50 [4]: 0.95 µM
IC50 [5]: 1.26 µM
IC50 [6]: 1.6 µM

Ki (FABP3): 3.4 ± 0.54 µM
Ki (FABP5): 1.65 ± 0.22 µM
FABP3 Ki/FABP5 Ki (FABP5): 2.1
Ki (FABP7): 0.68 ± 0.16 µM
Structure (SMILES): O=C(O)[C@@H]1C(c2ccccc2)[C@H](C(=O)OCc2ccccc2-c2ccccc2)[C@H]1c1ccccc1 (mixture of isomers) [Compound 3c, (±) -ε-3-(1,1′-biphenyl-2-ylmethoxycarbonyl)-2,4-diphenylcyclobutane-1-carboxylic acid]
IC50 [4]: 15 µM
IC50 [5]: 13.8 µM
IC50 [6]: 22.2 µM

Ki (FABP3): 6.86 ± 0.07 µM
Ki (FABP5): 1.26 ± 0.12 µM
FABP3 Ki/FABP5 Ki (FABP5): 5.4
Ki (FABP7): 1.78 ± 0.45 µM
Structure (SMILES): COc1ccccc1[C@H]1[C@H](C(=O)O)[C@H](c2ccccc2OC)[C@@H]1C(=O)Oc1cccc(-c2cccc3c2OCCO3)c1 (racemic) [Compound 2c, (±)-γ-3-((3-(2,3-dihydrobenzo[b][1, 4]dioxin-5-yl)phenoxy)carbonyl)-2,4-di(2-methoxyphenyl)cyclobutane-1-carboxylic acid]
IC50 [4]: 10.1 µM
IC50 [5]: 16.4 µM
IC50 [6]: 52.1 µM

Structure (SMILES): CC(=O)O[C@@]12CO[C@@H]1C[C@H](O)[C@@]1(C)C(=O)[C@H](O)C3=C(C)[C@@H](OC(=O)[C@H](O)[C@@H](NC(=O)OC(C)(C)C)c4ccccc4)C[C@@](O)([C@@H](OC(=O)c4ccccc4)[C@H]21)C3(C)C [docetaxel, reference compound]
tumor growth ([3]; 10 mg/kg, once weekly): near complete inhibition of growth

Ki (FABP3): 2.79 ± 0.85 µM
Ki (FABP5): 1.56 ± 0.19 µM
FABP3 Ki/FABP5 Ki (FABP5): 1.8
Ki (FABP7): 2.25 ± 0.13 µM
Structure (SMILES): COc1ccccc1C1[C@@H](C(=O)O)[C@@H](c2ccccc2OC)[C@@H]1C(=O)Oc1cccc(-c2ccc3c(c2)OCCO3)c1 (mixture of isomers) [Compound 1m]
IC50 [4]: 7.25 µM
IC50 [5]: 11.2 µM
IC50 [6]: 49.5 µM

Ki (FABP3): 4.02 ± 1.04 µM
Ki (FABP5): 0.41 ± 0.15 µM
FABP3 Ki/FABP5 Ki (FABP5): 9.8
Ki (FABP7): 0.91 ± 0.03 µM
Structure (SMILES): COc1ccccc1C1[C@@H](C(=O)O)[C@@H](c2ccccc2OC)[C@@H]1C(=O)Oc1cccc(-c2cccc3c2OCCO3)c1 (mixture of isomers) [Compound 1g, (±)-α-3-[3-(2,3-dihydrobenzo[b][1,4]dioxin-5-yl)phenoxycarbonyl]-2,4-di(2-methoxyphanyl)cyclobutane-1-carboxylic acid]
IC50 [4]: 4.53 µM
IC50 [5]: 8.87 µM
IC50 [6]: 49.8 µM

Ki (FABP3): 8.11 ± 1.67 µM
Ki (FABP5): 0.74 ± 0.06 µM
FABP3 Ki/FABP5 Ki (FABP5): 10.9
Ki (FABP7): 0.7 ± 0.03 µM
Structure (SMILES): O=C1CCc2cc(-c3cccc(OC(=O)[C@@H]4C(c5ccccc5)[C@@H](C(=O)O)[C@H]4c4ccccc4)c3)ccc2N1 (mixture of isomers) [Compound 1h, (±)-α-2,4-diphenyl-3-[3-(2-oxo-1,2,3,4-tetrahydroquinolin-6-yl)phenoxycarbonyl]cyclobutane-1-carboxylic acid]
IC50 [4]: 4.93 µM
IC50 [5]: 7.89 µM
IC50 [6]: 24 µM
